Assay results as given in patent publication US20090197910A1, “NOVEL VIRAL REPLICATION INHIBITORS” (KATHOLIEKE UNIVERSITEIT LEUVEN, priority 2006, published 2009).

Tests used:
[1] = system: HCV Subgenomic Replicon; test: HCV-Huh-5-2 replicon cell assay (luciferase); assay type: cell-based, Hepatitis C virus; settings: HCV subgenomic replicon in Huh-5-2 cells, 72 hours, luciferase; read-out: EC50 (concentration required to inhibit luciferase activity in the replicon system by 50%)
Experimental: (§1) Huh-5-2 cells [a cell line with a persistent HCV replicon I3891uc-ubi-neo/NS3-3′/5.1; replicon with firefly luciferase-ubiquitin-neomycin phosphotransferase fusion protein and EMCV-IRES driven NS3-5B HCV polyprotein] was cultured in RPMI medium (Gibco) supplemented with 10% fetal calf serum, 2 mM L-glutamine (Life Technologies), 1× non-essential amino acids (Life Technologies); 100 IU/ml penicillin and 100 ug/ml streptomycin and 250 ug/ml G418 (Geneticin, Life Technologies). Cells were seeded at a densitiy of 7000 cells per well in 96 well View Plate™ (Packard) in medium containing the same components as described above, except for G418. Cells were allowed to adhere and proliferate for 24 hr. At that time, culture medium was removed and serial dilutions of the test compounds were added in culture medium lacking G418. Interferon alfa 2a (500 IU) was included as a positive control. Plates were further incubated at 37° C. and 5% CO2 for 72 hours. Replication of the HCV replicon in Huh-5 cells results in luciferase activity in the cells. Luciferase activity is measured by adding 50 μl of 1× Glo-lysis buffer (Promega) for 15 minutes followed by 50 ul of the Steady-Glo Luciferase assay reagent (Promega). Luciferase activity is measured with a luminometer and the signal in each individual well is expressed as a percentage of the untreated cultures. Parallel cultures of Huh-5-2 cells, seeded at a density of 7000 cells/well of classical 96-well cell culture plates (Becton-Dickinson) are treated in a similar fashion except that no Glo-lysis buffer or Steady-Glo Luciferase reagent is added. Instead the density of the culture is measured by means of the MTS method (Promega).

[2] = system: Huh-5-2 cells; test: Cytostatic effect on Huh-5-2 cells (MTS method, parallel cultures); assay type: cell-based; settings: 72 hours, read-out: CC50 (concentration required to inhibit the proliferation of exponentially growing Huh-5-2 cells by 50%)
Experimental: as §1

CC(=O)OCC1OC(n2c(SCc3cc4cc(Br)ccc4oc3=O)nc3cc(Cl)c(Cl)cc32)C(OC(C)=O)C(OC(C)=O)C1OC(C)=O (centres unmarked) [Compound 7g, Acetic acid 3,5-diacetoxy-2-acctoxymethyl-6-[2-(6-bromo-2-oxo-2H-chromen-3-ylmethylsulfanyl)-5,6-dichloro-benzoimidazol-1-yl]-tetrahydro-pyran-4-yl ester]
EC50 [1]: 4.08 µM | CC50 [2]: > 64.8 µM
